Converted amounts (≈) assume the structure as drawn.
Tests used:
[1] = test system: Pseudomonas aeruginosa, MRSA, Escherichia coli, Klebsiella pneumoniae; conditions: same concentration as generated from the nanoparticles; cited from earlier work
T. rubrum [2] = experiment: aPI in the presence of ROS and RNS scavengers, CFU; type: cell-based; conditions: scavenger added before aPI with curcumin photosensitizer
Protocol: (§4) Different ROS and RNS scavengers were used to evaluate the effect of radical stress inhibition on aPI efficacy. […] Scavengers were added to fungal suspensions immediately before initiation of aPI and incubated for 1 h with RPMI 1640 without phenol red plus 2% glucose at 28° C. To evaluate fungal viability, 150 μL of the fungal suspensions were plated onto PDA, and incubated at 28° C. for 72 hours. The HT TitierTACS™ assay kit (Trevigen, Gaithersburg, Md., USA) was used to evaluate the occurrence of apoptosis after aPI.

T. rubrum [3] = experiment: Susceptibility testing (microdilution, CLSI M38-A) and growth curves; type: cell-based
Protocol: Susceptibility of T. rubrum to ground-state curcumin was tested by a microdilution method according to CLSI M38-A.49, 52 Itraconazole concentration ranged from 0.015 μg/mL to 8 μg/mL and curcumin and curc-np concentrations from 0.0012 μg/mL to 20 μg/mL. A 1% DMSO solution in control medium was evaluated. The MIC value was defined as the concentration required for 80% […] compared to untreated control. 12, 49 Growth kinetics of ground-state curcumin compared to aPI was also evaluated. Growth was evaluated for 7 days at 28° C. using a Bioscreen C growth curve system (Growth Curves USA, Piscataway, N.J., USA).

T. rubrum microconidia = experiment: Antimicrobial photodynamic inhibition (aPI) optimization, CFU; type: cell-based
Protocol: In this example, a curcumin (Sigma-Aldrich, St. […] For susceptibility testing, the stock was dilution in RPMI 1640 medium to a final concentration of 40 μg/mL. For aPI, the stock was diluted in PBS to concentrations of 1.0, 10 and 100 μg/mL. […] A comparative concentration of curcumin incorporated in nanoparticles was used based on spectrophotometric release curves showing that each mg of curc-np contained 10 μg of curcumin. For susceptibility testing, 8 mg of curc-np was suspended in 1 mL of PBS and diluted in RPMI to a final concentration of […] (equivalent to 40 μg/mL of encapsulated curcumin). For aPI, 10 mg of curc-np was suspended in 1 mL of PBS and serially diluted to obtain 10 μg/mL, 100 μg/mL and 10 mg/L of curc-np (equivalent to 1.0, 10, and 100 μg/mL of encapsulated curcumin). The light source used was BLU-U® light model 4070 (DUSA pharmaceuticals, Wilmington, Mass., USA), which emits blue light at a wavelength of 417±5 nm. The doses used were 10 J/cm^2 (17 minutes), 20 J/cm^2 (34 minutes), and 40 J/cm^2 (68 minutes). BLU-U light was chosen as the light source due to its resonance with curcumin. For aPI optimization, fungal cells were submitted to different treatment conditions by varying the photosensitizer (PS) concentration and light dose, as described in Table 1, below. PS without photoactivation and blue light alone served as dark toxicity and light controls, respectively. […] [table]

[4] = test system: J774.16 macrophages challenged with T. rubrum; experiment: Phagocytosis assay: J774.16 macrophages challenged with T. rubrum and treated with aPI; type: cell-based
Protocol: Macrophages were challenged with T. rubrum and treated with aPI to investigate the efficacy against infected mammalian cells. Specifically, J774.16 macrophages were grown at 37° C. with 10% CO2 in DMEM (Cellgro, Manassas, Va., USA). The fungal-macrophage cell proportion was 1:1, with 5.0×10^5 fungal cells to 5.0×10^5 macrophage cells. After challenging macrophages with T. rubrum microconidia, the cells were submitted to aPI, followed by incubation in the 10% CO2 chamber at 37° C. for 24 hours. The macrophages were lysed with cold distilled water and the lysate plated onto PDA and incubated at 28° C. for 72 hours.

T. rubrum [5] = experiment: Intracellular ROS and RNS after aPI, flow cytometry; type: cell-based; conditions: vs untreated
Protocol: Following aPI, samples were incubated with fluorescent probes for 30 minutes at 28° C., and subsequently analyzed with flow cytometry (Becton Dickinson™ LSRII, USA) using a 530/30 nm band pass filter for fluorescence detection. The Mean Fluorescence Intensity (MFI) was considered to determine radical production. Data analyses were performed using FlowJo 10.1 software.

T. rubrum cells = experiment: Apoptosis assay after aPI (HT TitierTACS kit); type: cell-based; conditions: vs untreated control
Protocol: as §4

T. rubrum [6] = experiment: In vivo antimicrobial photodynamic therapy (aPDT) pilot study; design: species or system BALB/c mice; conditions: 500 μg/mL in coconut oil, 10 J/cm^2 blue light, one treatment, CFU three days post treatment
Protocol: BALB/c mice were subcutaneously infected with T. rubrum. Seven days post-infection, mice (n=2 per group) were submitted to one treatment of aPDT, using 500 μg/mL of curcumin and curc-np suspended in coconut oil and 10 J/cm^2 of blue light. Pre-irradiation incubation time was 30 minutes, under light protection. Tissue was homogenized and CFUs quantified three days post treatment.

E. coli = experiment: Colony-forming units (CFU) assay, E. coli; type: cell-based; conditions: 24 h
Protocol: (§1) Following 24 h incubation of E. coli and MRSA, 10 μL aspirates from wells of the honeycomb plates were transferred to Eppendorf tubes with 990 μL PBS and gently vortexed. Controls were collected in the same fashion from wells containing only bacteria and TSB. The suspensions were serially diluted in PBS so that final concentrations were 10^−6 of the incubated concentration, and 100 μL aliquots were plated on TSA plates for 24 h. As with the absorbance assays, 8 clinical strains each of MRSA and E. coli were evaluated (data represents an average for the 8 strains each of E. coli and MRSA), and all conditions were measured in triplicate. CFU's were counted and recorded. Percent survival was determined by comparing CFU counts of SNO-CAP-np- or captopril-treated bacteria to CFU counts of untreated bacteria. P-value <0.05 by unpaired t-test was considered significant.

E. coli clinical strains = experiment: Bacterial growth susceptibility (OD600), E. coli; type: cell-based; conditions: all concentrations tested, up to 24 h, vs untreated
Protocol: (§2) In this example, 8 clinical strains each of MRSA and E. coli were evaluated. For each bacterial strain, one colony of bacteria grown on tryptic soy agar (TSA) was suspended in 1 mL tryptic soy broth (TSB). One μL aliquots were transferred to a 100-well honeycomb plate with 199 μL TSB. This TSB contained either 1, 2.5, 5, or 10 mg/mL SNO-CAP-np, or 2.5, 5, or 10 mM captopril, and controls included wells containing bacteria and TSB alone. The background absorbance of each SNO-CAP-np concentration was accounted for by wells containing SNO-CAP-np and TSB alone. No background absorbance was measured for captopril. […] All wells were incubated for 24 hours at 37° C. and growth was assessed by measuring optical density at 600 nm (OD600) with a microplate reader (Bioscreen C, Growth Curves USA, Piscataway, N.J.). Each condition was measured in triplicate, and averages were calculated along with standard error of the mean (SEM).
(§3) E. coli and MRSA strains were incubated at 37° C. with and without various concentrations of SNO-CAP-np (1, 2.5, 5, or 10 mg/mL) or captopril ([…]) for 24 h. […] Each data set represents averages for 8 strains of either E. coli or MRSA, and conditions for each strain were measured in triplicate. […]

MRSA = experiment: Colony-forming units (CFU) assay, MRSA; type: cell-based; conditions: 24 h
Protocol: as §1

MRSA clinical strains = experiment: Bacterial growth susceptibility (OD600), MRSA; type: cell-based; conditions: all concentrations tested, up to 24 h, vs untreated
Protocol: as §2, §3

## N[C@@H](CCC(=O)N[C@@H](CSN=O)C(=O)NCC(=O)O)C(=O)O [GSNO, S-nitrosoglutathione]
[1]
  antibacterial activity of an aliquot: no antibacterial activity was observed

## CC1(C)N([O])C(c2ccc(C(=O)O)cc2)=[N+]([O-])C1(C)C [carboxy-PTIO]
T. rubrum [2]
  inhibition of aPI efficacy by scavenger (fungal growth, CFU): T. rubrum growth was relatively intact despite aPI

## OC[C@@H](O)[C@@H](O)[C@H](O)[C@H](O)CO [D-mannitol]
T. rubrum [2]
  inhibition of aPI efficacy by scavenger (fungal growth, CFU): none of the concentrations

## O.O=S(=O)([O-])c1cc(O)c(O)c(S(=O)(=O)[O-])c1.[Na+].[Na+] [Tiron, 4,5-dihydroxy-1,3-benzenedisulfonic acid disodiumsalt hydrate]
T. rubrum [2]
  inhibition of aPI efficacy by scavenger (fungal growth, CFU): none of the concentrations

## CC(=O)C(=O)[O-].[Na+] [sodium pyruvate]
T. rubrum [2]
  inhibition of aPI efficacy by scavenger (fungal growth, CFU): none of the concentrations

## CCC(C)n1ncn(-c2ccc(N3CCN(c4ccc(OCC5COC(Cn6cncn6)(c6ccc(Cl)cc6Cl)O5)cc4)CC3)cc2)c1=O (centres unmarked) [itraconazole]
T. rubrum [3]; Trichophyton rubrum, clinical T. rubrum strain
  MIC: 0.25 µg/mL (≈ 0.354 µM)

## COc1cc(/C=C/C(=O)CC(=O)/C=C/c2ccc(O)c(OC)c2)ccc1O [curcumin]
T. rubrum [3]; seven-day incubation, 0.0012-20 μg/mL
  fungal growth reduction, ground-state (no photoactivation): did not yield significant 80% reduction of fungal growth
T. rubrum microconidia; 0.1 μg/mL, blue light 40 J/cm^2
  fungal viability (CFU) after aPI, lowest PS concentration: did not differ significantly from untreated control
T. rubrum microconidia; 10 μg/mL, blue light 10, 20 and 40 J/cm^2
  T. rubrum growth (CFU) after aPI at varying light dose: completely inhibited T. rubrum growth
T. rubrum microconidia; 10 μg/mL, blue light 40 J/cm^2
  fungal growth (CFU) after aPI, highest concentration: complete growth inhibition
T. rubrum microconidia; 1.0 and 10 μg/mL, blue light 40 J/cm^2, vs untreated
  fungal viability (CFU) after aPI: significantly decreased fungal viability
T. rubrum microconidia; three concentrations tested, no light
  fungal burden, PS without photoactivation (dark toxicity): did not reduce fungal burden
[4]; ground state
  macrophage-induced destruction of T. rubrum cells, no aPI: caused a decrease in macrophage-induced destruction of T. rubrum cells
[4]; vs untreated, dark toxicity and blue light controls
  fungal burden (CFU) in macrophages after aPI: significantly reduced fungal burden
T. rubrum [5]; DAF-FM probe
  fold change in NO. production: 6 fold
T. rubrum [5]; DHR 123 probe
  fold-change in ONOO. production: 7 fold
T. rubrum [5]; H2DCFDA probe
  fold-change in ROS production: 17 fold
T. rubrum cells
  apoptosis of T. rubrum cells after irradiation with blue light: significant trend towards increased apoptosis
  apoptosis of T. rubrum cells without irradiation: did not induce apoptosis
T. rubrum [6]
  fungal burden compared to untreated control: did not significantly reduce fungal burden

## C[C@H](CS)C(=O)N1CCC[C@H]1C(=O)O [captopril]
E. coli; 2.5 mM
  average E. coli survival compared with untreated controls: 85%
E. coli; 5 mM
  average E. coli survival compared with untreated controls: 83.6%
E. coli; 10 mM
  average E. coli survival compared with untreated controls: 59.1%
E. coli clinical strains
  effect on E. coli growth (OD600): showed an effect on E. coli growth in a dose dependent fashion
MRSA; 2.5 mM
  average MRSA survival compared with untreated controls: 99.3%
MRSA; 5 mM
  average MRSA survival compared with untreated controls: 95.6%
MRSA; 10 mM
  average MRSA survival compared with untreated controls: 69.5%
MRSA clinical strains
  effect on MRSA growth (OD600): did not have an effect

## Cl.O=S(=O)([O-])c1ccc(-c2c3nc(c(-c4ccc(S(=O)(=O)O)cc4)c4ccc([nH]4)c(-c4ccc(S(=O)(=O)O)cc4)c4nc(c(-c5ccc(S(=O)(=O)O)cc5)c5ccc2[nH]5)C=C4)C=C3)cc1.[Fe] [FeTPPs, 5,10,15,20-tetrakis-(4-sulfonatophenyl)-porphyrinato iron (III) chloride]
T. rubrum [2]
  inhibition of aPI efficacy by scavenger (fungal growth, CFU): T. rubrum growth was relatively intact despite aPI

Reference: patent US20180055877A1, “THERAPEUTIC NANOPARTICLES AND METHODS THEREOF” (priority 2014, published 2018)
